Columns and labels:
Myzus persicae [1] = assay: B3: Myzus persicae (green peach aphid), mixed population, systemic/feeding activity, curative; format: in vivo; conditions: 144 h, roots of infested pea seedlings in test solution of 24 ppm, 6 days after introduction, read-out: control of Myzus persicae (mortality)
Text: B3: Myzus persicae (green peach aphid) (mixed population, systemic/feeding activity, curative)
Roots of pea seedlings, infested with an aphid population of mixed ages, were placed directly in the test solutions of 24 ppm. 6 days after introduction, samples were checked for mortality and special effects on the plant.

Myzus persicae [2] = assay: B2: Myzus persicae (green peach aphid), mixed population, feeding/residual contact activity, preventive; format: in vivo; conditions: foliar, 144 h, sunflower leaf discs sprayed with 200 ppm, 6 days incubation, read-out: control of Myzus persicae (mortality)
Procedure: B2: Myzus persicae (green peach aphid) (mixed population, feeding/residual contact activity, preventive)
Sunflower leaf discs were placed on agar in a 24-well microtiter plate and sprayed with test solutions of 200 ppm. After drying, the leaf discs were infested with an aphid population of mixed ages. After an incubation period of 6 days, samples were checked for mortality and special effects (e.g. phytotoxicity).

Structure (SMILES) | mortality at 24 ppm (Myzus persicae [1]) [%] | mortality at 200 ppm (Myzus persicae [2]) [%]
N=C1c2c(F)cccc2S(=O)(=O)N1CC1CC1 [Compound P2.3, 4-Fluoro-2-cyclopropylmethyl-1,2-benzisothiazol-3(2H)-imine 1,1-dioxide] | ≥ 80 | –
CCNC1=NS(=O)(=O)c2cccc(F)c21 [Compound P1.15, N-Ethyl-4-fluoro-1,2-benzisothiazol-3-amine 1,1-dioxide] | ≥ 80 | ≥ 65
